Target: T1, COX-2 (Homo sapiens, UniProt P35354)
T1 construct: purchased Cayman Chemicals (Ann Arbor, Mich.)
T1 sequence (P35354 18-604): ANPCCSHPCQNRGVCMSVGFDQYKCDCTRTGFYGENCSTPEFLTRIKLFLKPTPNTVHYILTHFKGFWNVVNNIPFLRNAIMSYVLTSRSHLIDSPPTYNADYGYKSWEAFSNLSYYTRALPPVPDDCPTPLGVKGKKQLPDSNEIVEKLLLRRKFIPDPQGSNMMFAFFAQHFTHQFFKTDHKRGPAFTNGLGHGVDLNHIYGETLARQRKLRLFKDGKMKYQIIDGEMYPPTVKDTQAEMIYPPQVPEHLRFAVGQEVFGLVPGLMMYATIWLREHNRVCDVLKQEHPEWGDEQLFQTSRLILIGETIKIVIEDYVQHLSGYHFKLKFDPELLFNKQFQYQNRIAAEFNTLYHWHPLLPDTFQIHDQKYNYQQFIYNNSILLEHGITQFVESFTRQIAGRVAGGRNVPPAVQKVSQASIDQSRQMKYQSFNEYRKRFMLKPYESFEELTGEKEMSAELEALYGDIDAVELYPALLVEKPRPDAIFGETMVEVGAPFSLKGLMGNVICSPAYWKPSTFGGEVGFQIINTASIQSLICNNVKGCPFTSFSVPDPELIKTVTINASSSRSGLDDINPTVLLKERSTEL
Assay: COX-2 inhibition assay (Cayman Chemicals; prostaglandin production quantified by EIA)
Format: biochemical
Settings: in words; known compounds of SRB Extract 1
Method: All reagents and solutions were prepared according to the protocols established by Cayman Chemicals (Ann Arbor, Mich.) for the COX-1 and COX-2 inhibition assays. Two procedures were utilized to assess the COX-1/COX-2-specific and non-specific activities.
Prostaglandin Production Inhibition: Extracts were diluted in dimethylsulfoxide (DMSO), and then diluted in reaction buffer so that the final concentration of DMSO was 1%. Reactions were either run with COX-1 or COX-2 in the presence of Heme. Wells containing potential inhibitors (SRB extracts), non-inhibitor (100% activity) or background wells (heat inactivated enzyme) along with appropriate blanks were prepared. Solutions were placed in a 37° C. incubator for 15 minutes prior to running the reaction. Arachidonic acid was added and mixed and the reaction proceeded for 2 minutes. The reaction was stopped by addition of 1 M HCl to each well, then reducing the Prostaglandin H2 product to ProstaglandinG F2, which was quantified using EIA.
Quantification of Prostaglandin with EIA: The EIA assay plate was provided in the Cayman Chemicals screening kit. Aliquots, 50 μL, of the reaction products (PGF2) from prostaglandin production were added to their respective wells. […] The color development was quantified at 409 nm in a Tecan M200 microplate reader.

Structure (SMILES) | COX-2 inhibition
CCCc1ccccn1 [conyrin] | strong
CC1(C)C[C@@H](O)C[C@@]2(C)OC(=O)C=C12 [epiloliode, Epiloliolide] | strong

— US20090285919A1, “Rice Bran Extracts for Inflammation and Methods of Use Thereof” (priority 2008, published 2009)
